# Source: patent publication US20110015225A1, “Heterocyclic compound” (Takeda Pharmaceutical Company Limited, priority 2008, published 2011)
# Target: MCH receptor (SLC-1) (UniProt Q99705)
# Test: MCH receptor antagonistic activity using GTPγS binding assay
# Format: biochemical, human
# Settings: [35S]-GTPγS binding, membrane fractions of SLC-1 expression CHO cells, 3×10^−10 M MCH, 25° C. 1 hr; read-out: Inhibitory Activity (IC50 value: nM)
# Protocol: Using human SLC-1 expression CHO cell clone 57 and rat SLC-1 expression CHO cell clone 44 described in WO01/82925, membrane fractions of SLC-1 expression CHO cells were prepared by the following method. In phosphate buffered saline (pH 7.4) supplemented with 5 mM EDTA (ethylenediaminetetraacetic acid) were suspended human and rat SLC-1 expression CHO cells (1×10^8) and centrifuged. Homogenate buffer (10 ml, 10 mM […], 5 mM EDTA, pH 7.5) was added to the pellets of the cells and, using Polytron Homogenizer, the mixture was homogenated. The supernatant obtained after centrifugation at 400×g for 15 min was further centrifuged at 100,000×g for 1 hr to give precipitate of the membrane fraction. The precipitate was suspended in 2 ml of an assay buffer [50 mM Tris-HCl (pH 7.5), 1 mM EDTA, 0.1% BSA (bovine serum albumin), 10 mM MgCl2, 100 mM NaCl, 1 μM GDP (guanosine 5′-diphosphate), 0.25 mM PMSF (phenylmethylsulfonyl fluoride), […]] and centrifuged at 100,000×g for 1 hr. The membrane fraction recovered as precipitate was suspended again in 20 ml of an assay buffer, and after dispensing, preserved at −80° C. and used upon thawing each time when in use.
# The MCH receptor antagonistic activity of the test compound was determined as follows. The membrane fractions of SLC-1 expression CHO cells (171 μl) diluted with an assay buffer was dispensed to a polypropylene 96 well plate and 3×10^−10 M MCH (2 μl) diluted with DMSO solution, test compound solution (2 μl) diluted to various concentrations and [^35S]-Guanosine 5′-(γ-thio)triphosphate (25 μl, Daiichi Pure Chemicals Co., Ltd.) were respectively added (cellular membrane final concentration: 20 μg/ml, [^35S]-Guanosine 5′-(γ-thio)triphosphate final concentration: 0.33 nM). The reaction mixture was reacted at 25° C. for 1 hr with stirring, suction filtered with a glass filter (GF-C) and washed 3 times with a wash solution (300 μl, 50 mM Tris-HCl buffer, pH 7.5). Liquid scintillator ([…]) was added to the glass filter and the residual radioactivity was determined by a liquid scintillation counter.
# Binding inhibition (%)=(radioactivity upon addition of test compound and MCH−radioactivity upon addition of DMSO solution)/(radioactivity upon addition of MCH−radioactivity upon addition of DMSO solution)×100
# From the binding inhibition (%), IC50 of the test compound was calculated.
row,Compound,IC50
1,"Cc1c(NC(=O)c2ccc(OCC3CC3)cc2)ccc2cc(CNCCCS(C)(=O)=O)cnc12 [Ex. 2, 4-(cyclopropylmethoxy)-N-[8-methyl-3-({[3-(methylsulfonyl)propyl]amino}methyl)quinolin-7-yl]benzamide]",2.3 nM
2,"Cc1c(NC(=O)c2ccc(OCC3CC3)cc2)ccc2cc(C(C)NCCCS(C)(=O)=O)cnc12 (stereo not drawn) [Ex. 3, 4-(cyclopropylmethoxy)-N-[8-methyl-3-(1-{[3-(methylsulfonyl)propyl]amino}ethyl)quinolin-7-yl]benzamide]",2.2 nM
3,"Cc1c(NC(=O)c2ccc(OCC3CC3)cc2)ccc2cc(CNCC(C)(C)CS(C)(=O)=O)cnc12 [Ex. 4, 4-(cyclopropylmethoxy)-N-[3-({[2,2-dimethyl-3-(methylsulfonyl)propyl]amino}methyl)-8-methylquinolin-7-yl]benzamide]",2.8 nM
4,"Cc1c(NC(=O)c2ccc(OCC3CC3)cc2)ccc2cc(CNCCNS(C)(=O)=O)cnc12 [Ex. 6, 4-(cyclopropylmethoxy)-N-{8-methyl-3-[({2-[(methylsulfonyl)amino]ethyl}amino)methyl]quinolin-7-yl}benzamide]",4 nM
5,"Cc1c(NC(=O)c2ccc(OCC3CC3)cc2)ccc2cc(C(C)NCCNS(C)(=O)=O)cnc12 (stereo not drawn) [Ex. 7, 4-(cyclopropylmethoxy)-N-{8-methyl-3-[1-({2-[(methylsulfonyl)amino]ethyl}amino)ethyl]quinolin-7-yl}benzamide]",3.7 nM
6,"Cc1c(NC(=O)c2ccc(OCC3CC3)cc2)ccc2cc(CNC3CCN(S(C)(=O)=O)CC3)cnc12 [Ex. 8, 4-(cyclopropylmethoxy)-N-[8-methyl-3-({[1-(methylsulfonyl)piperidin-4-yl]amino}methyl)quinolin-7-yl]benzamide]",3.9 nM
7,"Cc1c(NC(=O)c2ccc(OCC3CC3)cc2)ccc2cc(CNCCCNS(C)(=O)=O)cnc12 [Ex. 13, 4-(cyclopropylmethoxy)-N-{8-methyl-3-[({3-[(methylsulfonyl)amino]propyl}amino)methyl]quinolin-7-yl}benzamide]",2.8 nM
8,"Cc1c(NC(=O)c2ccc(OCC3CC3)cc2)ccc2cc(CNCC3CCN(S(C)(=O)=O)CC3)cnc12 [Ex. 14, 4-(cyclopropylmethoxy)-N-{8-methyl-3-[({[1-(methylsulfonyl)piperidin-4-yl]methyl}amino)methyl]quinolin-7-yl}benzamide]",3 nM
9,"Cc1c(NC(=O)c2ccc(OCC3CC3)cc2)ccc2cc(CNCC3(O)CCS(=O)(=O)CC3)cnc12 [Ex. 15, 4-(cyclopropylmethoxy)-N-[3-({[(4-hydroxy-1,1-dioxidotetrahydro-2H-thiopyran-4-yl)methyl]amino}methyl)-8-methylquinolin-7-yl]benzamide]",5.6 nM
10,"Cc1c(NC(=O)c2ccc(OCC3CC3)cc2)ccc2cc(CNCC3CCS(=O)(=O)CC3)cnc12 [Ex. 16, 4-(cyclopropylmethoxy)-N-[3-({[(1,1-dioxidotetrahydro-2H-thiopyran-4-yl)methyl]amino}methyl)-8-methylquinolin-7-yl]benzamide]",1.8 nM
11,"Cc1c(NC(=O)c2ccc(OCCC3CC3)cc2)ccc2cc(CNCCCS(C)(=O)=O)cnc12 [Ex. 18, 4-(2-cyclopropylethoxy)-N-[8-methyl-3-({[3-(methylsulfonyl)propyl]amino}methyl)quinolin-7-yl]benzamide]",1.1 nM
12,"Cc1c(NC(=O)c2ccc(OCCC3CC3)cc2)ccc2cc(CNC3CCS(=O)(=O)CC3)cnc12 [Ex. 20, 4-(2-cyclopropylethoxy)-N-(3-{[(1,1-dioxidotetrahydro-2H-thiopyran-4-yl)amino]methyl}-8-methylquinolin-7-yl)benzamide]",1.4 nM
13,"Cc1c(NC(=O)c2ccc(OCCC3CC3)cc2)ccc2cc(CNC3CC[S+]([O-])CC3)cnc12 (stereo not drawn) [Ex. 21, 4-(2-cyclopropylethoxy)-N-(8-methyl-3-{[(trans-1-oxidotetrahydro-2H-thiopyran-4-yl)amino]methyl}quinolin-7-yl)benzamide]",2.7 nM
14,"Cc1c(NC(=O)c2ccc(OCCC3CC3)cc2)ccc2cc(CNC3CC[S+]([O-])CC3)cnc12 (stereo not drawn) [Ex. 22, 4-(2-cyclopropylethoxy)-N-(8-methyl-3-{[(cis-1-oxidotetrahydro-2H-thiopyran-4-yl)amino]methyl}quinolin-7-yl)benzamide]",1.8 nM
15,"Cc1c(NC(=O)c2ccc(OCCC3CC3)cc2F)ccc2cc(CNC3CCS(=O)(=O)CC3)cnc12 [Ex. 23, 4-(2-cyclopropylethoxy)-N-(3-{[(1,1-dioxidotetrahydro-2H-thiopyran-4-yl)amino]methyl}-8-methylquinolin-7-yl)-2-fluorobenzamide]",1.5 nM
16,"Cc1c(NC(=O)c2ccc(OCCC3CC3)cc2F)ccc2cc(CNC3CC[S+]([O-])CC3)cnc12 (stereo not drawn) [Ex. 24, 4-(2-cyclopropylethoxy)-2-fluoro-N-(8-methyl-3-{[(trans-1-oxidotetrahydro-2H-thiopyran-4-yl)amino]methyl}quinolin-7-yl)benzamide]",1.5 nM
17,"Cc1c(NC(=O)c2ccc(OCCC3CC3)cc2F)ccc2cc(CNC3CC[S+]([O-])CC3)cnc12 (stereo not drawn) [Ex. 25, 4-(2-cyclopropylethoxy)-2-fluoro-N-(8-methyl-3-{[cis-1-oxidotetrahydro-2H-thiopyran-4-yl)amino]methyl}quinolin-7-yl)benzamide]",1.2 nM
18,"Cc1c(NC(=O)c2ccc(OCC3CC3)cc2)ccc2cc(CNCCCC[S+](C)[O-])cnc12 (stereo not drawn) [Ex. 26, 4-(cyclopropylmethoxy)-N-[8-methyl-3-({[4-(methylsulfinyl)butyl]amino}methyl)quinolin-7-yl]benzamide]",4.6 nM
19,"Cc1c(NC(=O)c2ccc(OCC3CC3)cc2)ccc2cc(CNCCCCS(C)(=O)=O)cnc12 [Ex. 27, 4-(cyclopropylmethoxy)-N-[8-methyl-3-({[4-(methylsulfonyl)butyl]amino}methyl)quinolin-7-yl]benzamide]",1.6 nM
20,"Cc1c(NC(=O)c2ccc(OCC3CC3)cc2)ccc2cc(C(C)NC3CCS(=O)(=O)CC3)cnc12 (stereo not drawn) [Ex. 28, 4-(cyclopropylmethoxy)-N-(3-{1-[(1,1-dioxidotetrahydro-2H-thiopyran-4-yl)amino]ethyl}-8-methylquinolin-7-yl)benzamide]",4.6 nM
21,"Cc1c(NC(=O)c2ccc(OCC3CC3)cc2)ccc2cc([C@@H](C)NC3CC[S+]([O-])CC3)cnc12 (stereo partly drawn) [Ex. 30, 4-(cyclopropylmethoxy)-N-(8-methyl-3-{(1R)-1-[cis-(1-oxidotetrahydro-2H-thiopyran-4-yl)amino]ethyl}quinolin-7-yl)benzamide]",3.9 nM
22,"Cc1c(NC(=O)c2ccc(OCC3CC3)cc2)ccc2cc(CNC3CCS(=O)(=O)CC3)cnc12 [Ex. 31, 4-(cyclopropylmethoxy)-N-(3-{[(1,1-dioxidotetrahydro-2H-thiopyran-4-yl)amino]methyl}-8-methylquinolin-7-yl)benzamide]",5.1 nM
23,"Cc1c(NC(=O)c2ccc(OCC3CC3)cc2)ccc2cc(CNC3CC[S+]([O-])CC3)cnc12 (stereo not drawn) [Ex. 32, 4-(cyclopropylmethoxy)-N-(8-methyl-3-{[(trans-1-oxidotetrahydro-2H-thiopyran-4-yl)amino]methyl}quinolin-7-yl)benzamide]",6.5 nM
24,"Cc1c(NC(=O)c2ccc(OCC3CC3)cc2)ccc2cc(CNC3CC[S+]([O-])CC3)cnc12 (stereo not drawn) [Ex. 33, 4-(cyclopropylmethoxy)-N-(8-methyl-3-{[(cis-1-oxidotetrahydro-2H-thiopyran-4-yl)amino]methyl}quinolin-7-yl)benzamide]",4.1 nM
25,"Cc1c(NC(=O)c2ccc(OCC3CC3)cc2F)ccc2cc(CNC3CCS(=O)(=O)CC3)cnc12 [Ex. 34, 4-(cyclopropylmethoxy)-N-(3-{[(1,1-dioxidotetrahydro-2H-thiopyran-4-yl)amino]methyl}-8-methylquinolin-7-yl)-2-fluorobenzamide]",2.7 nM
26,"Cc1c(NC(=O)c2ccc(OCC3CC3)cc2F)ccc2cc(CNC3CC[S+]([O-])CC3)cnc12 (stereo not drawn) [Ex. 35, 4-(cyclopropylmethoxy)-2-fluoro-N-(8-methyl-3-{[(trans-1-oxidotetrahydro-2H-thiopyran-4-yl)amino]methyl}quinolin-7-yl)benzamide]",5.6 nM
27,"Cc1c(NC(=O)c2ccc(OCC3CC3)cc2F)ccc2cc(CNC3CC[S+]([O-])CC3)cnc12 (stereo not drawn) [Ex. 36, 4-(cyclopropylmethoxy)-2-fluoro-N-(8-methyl-3-{[(cis-1-oxidotetrahydro-2H-thiopyran-4-yl)amino]methyl}quinolin-7-yl)benzamide]",3.4 nM
